Earlier results, collected in patent US20250213503A1, “TREATMENT OF CANCER WITH S1P RECEPTOR AGONISTS” (PRIOTHERA SAS, priority 2022, published 2025).

Target: S1PR1 (Homo sapiens, UniProt P21453)
Sequence (P21453 whole entry, species assumed): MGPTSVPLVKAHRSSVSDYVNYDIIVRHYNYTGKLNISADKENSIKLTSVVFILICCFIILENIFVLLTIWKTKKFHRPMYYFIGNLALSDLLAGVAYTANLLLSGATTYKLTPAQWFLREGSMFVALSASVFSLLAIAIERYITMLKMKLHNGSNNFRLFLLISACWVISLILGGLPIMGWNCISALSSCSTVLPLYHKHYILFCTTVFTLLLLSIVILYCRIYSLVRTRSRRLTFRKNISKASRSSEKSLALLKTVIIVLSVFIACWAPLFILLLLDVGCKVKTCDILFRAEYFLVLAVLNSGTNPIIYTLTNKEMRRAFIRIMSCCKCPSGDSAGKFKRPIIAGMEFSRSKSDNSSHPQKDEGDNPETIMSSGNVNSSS

Q: For CCCCCCCCc1ccc(CCC(N)(CO)CO)cc1 [FTY720], which “selectivity for S1PR1 versus S1PR3-5” value is on record?
A: Its value is “poor selectivity for S1PR1 versus S1PR3-5”.
